# Molecular target: T1, BTK enzyme (recombinant full-length BTK, hBTK) (Homo sapiens, UniProt Q06187)
# T1 construct: recombinant protein from baculovirus-transfected Sf9 cells: full-length BTK, 6HIS-tag cleaved; 6HIS (cleaved yes); made in house; host or cells: baculovirus-transfected Sf9 cells
# Test: Btk enzyme activity assay, LANCE TR-FRET
# Assay type: biochemical
# Details: 50 pM hBTK, 2 μM biotin-A5-peptide, 25 μM ATP; 60 minute compound & enzyme incubation; 120 minutes reaction; read-out: BTK binding potency IC50
# Procedure: Btk Enzyme Activity Assay Methods
# BTK enzymatic activity was determined with the LANCE (Lanthanide Chelate Excite) TR-FRET (lime-resolved fluorescence resonance energy transfer) assay. […] Phosphorylation reactions were allowed to proceed for 120 minutes. […] After 60 minutes incubation with detection reagents, reaction plates were read on a PerkinElmer EnVision plate reader using standard TR-FRET protocol. Briefly, excitation of donor molecules (Eu-chelate:anti-phospho-antibody) with a laser light source at 337 nm produces energy that can be transferred to Dylight-650 acceptor molecules if this donor:acceptor pair is within close proximity. Fluorescence intensity at both 665 nm (acceptor) and 615 nm (donor) are measured and a TR-FRET ratio calculated for each well (acceptor intensity/donor intensity). IC50 values were determined by 4 parameter robust fit of TR-FRET ratio values vs. (Log10) compound concentrations.
# T1 sequence (Q06187 whole entry): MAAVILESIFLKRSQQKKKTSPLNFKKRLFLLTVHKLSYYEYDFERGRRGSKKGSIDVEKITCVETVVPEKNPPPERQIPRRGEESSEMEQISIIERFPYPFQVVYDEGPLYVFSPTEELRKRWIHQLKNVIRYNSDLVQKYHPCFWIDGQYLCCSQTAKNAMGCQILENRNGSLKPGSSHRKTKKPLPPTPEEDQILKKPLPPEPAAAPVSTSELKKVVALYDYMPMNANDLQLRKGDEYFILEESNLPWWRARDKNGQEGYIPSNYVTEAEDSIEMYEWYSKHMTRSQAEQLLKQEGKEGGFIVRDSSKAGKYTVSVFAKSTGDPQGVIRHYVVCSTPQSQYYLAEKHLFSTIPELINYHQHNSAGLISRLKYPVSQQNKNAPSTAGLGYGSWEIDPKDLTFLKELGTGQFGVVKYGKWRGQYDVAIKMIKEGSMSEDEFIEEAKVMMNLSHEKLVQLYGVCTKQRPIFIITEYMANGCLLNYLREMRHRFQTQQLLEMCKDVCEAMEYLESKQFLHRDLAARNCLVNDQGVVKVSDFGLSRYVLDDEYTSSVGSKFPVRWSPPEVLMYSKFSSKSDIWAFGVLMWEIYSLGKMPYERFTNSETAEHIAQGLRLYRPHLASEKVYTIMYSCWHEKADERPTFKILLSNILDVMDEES
row,SMILES,IC50 [nM]
1,"COc1ccc(-c2ccc3c(c2)[nH]c2c(C(N)=O)cnc(N4CCC[C@@]5(CCN(C)C5=O)C4)c23)cn1 [Example 74, 7-(6-methoxypyridin-3-yl)-1-[(5R)-2-methyl-1-oxo-2,7-diazaspiro[4.5]dec-7-yl]-5H-pyrido[4,3-b]indole-4-carboxamide]",8.9
2,"NC(=O)c1cnc(N2CCC[C@]3(C2)C(=O)NC[C@H]3O)c2c1[nH]c1ccccc12 (stereo in doubt) [Example 17, 1-[(4S,5R)-4-hydroxy-1-oxo-2,7-diazaspiro[4.5]dec-7-yl]-5H-pyrido[4,3-b]indole-4-carboxamide]",538
3,"CN1CC(CO)C2(CCCN(c3ncc(C(N)=O)c4[nH]c5ccccc5c34)C2)C1=O (single isomer, unassigned) [Example 91, cis-1-(4-(hydroxymethyl)-2-methyl-1-oxo-2,7-diazaspiro[4.5]decan-7-yl)-5H-pyrido[4,3-b]indole-4-carboxamide]",1000
4,"CNC(=O)N1CCC(c2ccc3[nH]c4c(C(N)=O)cnc(N5CCCC6(CCNC6=O)C5)c4c3c2)CC1 (stereo not shown) [Example 47, 8-[1-(methylcarbamoyl)piperidin-4-yl]-1-(1-oxo-2,7-diazaspiro[4.5]dec-7-yl)-5H-pyrido[4,3-b]indole-4-carboxamide]",72.6
5,"O=C(NO)c1cnc(N2CCCC3(CCNC3=O)C2)c2c1[nH]c1ccccc12 (stereo not shown) [Example 9, N-hydroxy-1-(1-oxo-2,7-diazaspiro[4.5]dec-7-yl)-5H-pyrido[4,3-b]indole-4-carboxamide]",384
6,"CC(C)N1CCC(c2ccc3[nH]c4c(C(N)=O)cnc(N5CCCC6(CCNC6=O)C5)c4c3c2)CC1 (stereo not shown) [Example 50, 8-[1-(1-methylethyl)piperidin-4-yl]-1-(1-oxo-2,7-diazaspiro[4.5]dec-7-yl)-5H-pyrido[4,3-b]indole-4-carboxamide]",58.7
7,"Cc1noc(C)c1-c1ccc2c(c1)[nH]c1c(C(N)=O)cnc(N3CCC[C@@]4(CCN(C)C4=O)C3)c12 [Example 80, 7-(3,5-dimethylisoxazol-4-yl)-1-[(5R)-2-methyl-1-oxo-2,7-diazaspiro[4.5]dec-7-yl]-5H-pyrido[4,3-b]indole-4-carboxamide]",12.7
8,"NC(=O)c1cnc(N2CCC[C@@]3(CCCN(c4ccc(F)cc4)C3=O)C2)c2c1[nH]c1ccc(F)cc12 [Example 6, 8-fluoro-1-[(6R)-8-(4-fluorophenyl)-7-oxo-2,8-diazaspiro[5.5]undec-2-yl]-5H-pyrido[4,3-b]indole-4-carboxamide]",853
9,"CN1CCCC2(CCCN(c3ncc(C(N)=O)c4[nH]c5ccccc5c34)C2)C1=O (stereo not shown) [Example 35, 1-(8-methyl-7-oxo-2,8-diazaspiro[5.5]undec-2-yl)-5H-pyrido[4,3-b]indole-4-carboxamide]",55.2
10,"NC(=O)c1cnc(N2CCC[C@@]3(CCNC3=O)C2)c2c1[nH]c1cc(-c3ccc(=O)[nH]c3)ccc12 [Example 68, 1-[(5R)-1-oxo-2,7-diazaspiro[4.5]dec-7-yl]-7-(6-oxo-1,6-dihydropyridin-3-yl)-5H-pyrido[4,3-b]indole-4-carboxamide]",3.9
11,"CC(C)(C)OC(=O)N1CCC2(CCN(c3ncc(C(N)=O)c4[nH]c5ccccc5c34)CC2)C1 [Example 13, tert-butyl 8-(4-carbamoyl-5H-pyrido[4,3-b]indol-1-yl)-2,8-diazaspiro[4.5]decane-2-carboxylate]",163
12,"COC(=O)N1CCC(c2ccc3c(c2)[nH]c2c(C(N)=O)cnc(N4CCCC5(CCNC5=O)C4)c23)CC1 (stereo not shown) [Example 56, methyl 4-[4-carbamoyl-1-(1-oxo-2,7-diazaspiro[4.5]dec-7-yl)-5H-pyrido[4,3-b]indol-7-yl]piperidine-1-carboxylate]",3
13,"NC(=O)c1cnc(N2CCCC3(CCNC3=O)C2)c2c1[nH]c1cc(C3CCNCC3)ccc12 (stereo not shown) [Example 42, 1-(1-oxo-2,7-diazaspiro[4.5]decan-7-yl)-7-(piperidin-4-yl)-5H-pyrido[4,3-b]indole-4-carboxamide]",1.4
14,"CC(=O)N1CCC2(C1)CN(c1ncc(C(N)=O)c3[nH]c4ccccc4c13)C2 [Example 27, 1-(6-acetyl-2,6-diazaspiro[3.4]oct-2-yl)-5H-pyrido[4,3-b]indole-4-carboxamide]",232
15,"COC(=O)N1CCC(c2ccc3[nH]c4c(C(N)=O)cnc(N5CCCC6(CCNC6=O)C5)c4c3c2)CC1 (stereo not shown) [Example 51, methyl 4-[4-carbamoyl-1-(1-oxo-2,7-diazaspiro[4.5]dec-7-yl)-5H-pyrido[4,3-b]indol-8-yl]piperidine-1-carboxylate]",87.9
16,"NC(=O)c1cnc(N2CCCC3(CCNC3=O)C2)c2c1[nH]c1cc(C3CCCNC3)ccc12 (stereo not shown) [Example 44, 1-(1-oxo-2,7-diazaspiro[4.5]dec-7-yl)-7-piperidin-3-yl-5H-pyrido[4,3-b]indole-4-carboxamide]",1.6
17,"CC(C)(C)c1ccc(N2CCC3(CCCN(c4ncc(C(N)=O)c5[nH]c6ccccc6c45)C3)CC2=O)cc1 (stereo not shown) [Example 38, 1-[9-(4-tert-butylphenyl)-8-oxo-2,9-diazaspiro[5.5]undec-2-yl]-5H-pyrido[4,3-b]indole-4-carboxamide]",420
18,"NC(=O)c1cnc(N2CCC[C@]3(CCCN(c4ccc(F)cc4)C3=O)C2)c2c1[nH]c1ccccc12 [Example 2, (S)-1-(8-(4-fluorophenyl)-7-oxo-2,8-diazaspiro[5.5]undecan-2-yl)-5H-pyrido[4,3-b]indole-4-carboxamide]",12.9
19,"NC(=O)c1cnc(N2CCC[C@@]3(CCNC3=O)C2)c2c1[nH]c1cc(C3CCC(=O)NC3)ccc12 (stereo partly drawn) [Example 73, 1-[(5R)-1-oxo-2,7-diazaspiro[4.5]dec-7-yl]-7-(6-oxopiperidin-3-yl)-5H-pyrido[4,3-b]indole-4-carboxamide]",0.74
20,"CC(C)(C)OC(=O)N1CCC(c2ccc3c(c2)[nH]c2c(C(N)=O)cnc(N4CCCC5(CCNC5=O)C4)c23)CC1 (stereo not shown) [Example 43, tert-butyl 4-[4-carbamoyl-1-(1-oxo-2,7-diazaspiro[4.5]dec-7-yl)-5H-pyrido[4,3-b]indol-7-yl]piperidine-1-carboxylate]",7.4
21,"NC(=O)c1cnc(N2CCCC3(C2)NCCNC3=O)c2c1[nH]c1ccccc12 (stereo not shown) [Example 87, 1-(5-oxo-1,4,8-triazaspiro[5.5]undecan-8-yl)-5H-pyrido[4,3-b]indole-4-carboxamide]",82.8
22,"NC(=O)c1cnc(N2CCCC3(C2)C(=O)NCC3O)c2c1[nH]c1ccccc12 (mixture of isomers) [Example 86, 1-(4-hydroxy-1-oxo-2,7-diazaspiro[4.5]decan-7-yl)-5H-pyrido[4,3-b]indole-4-carboxamide]",170
23,"COc1ccc(-c2ccc3c(c2)[nH]c2c(C(N)=O)cnc(N4CCC[C@@]5(CCNC5=O)C4)c23)cn1 [Example 67, 7-(6-methoxypyridin-3-yl)-1-[(5R)-1-oxo-2,7-diazaspiro[4.5]dec-7-yl]-5H-pyrido[4,3-b]indole-4-carboxamide]",13.9
24,"CS(=O)(=O)N1CCC(c2ccc3[nH]c4c(C(N)=O)cnc(N5CCCC6(CCNC6=O)C5)c4c3c2)CC1 (stereo not shown) [Example 66, 8-[1-(methylsulfonyl)piperidin-4-yl]-1-(1-oxo-2,7-diazaspiro[4.5]dec-7-yl)-5H-pyrido[4,3-b]indole-4-carboxamide]",125

# Same assay, conditions: BTK binding potency IC50 (nM), 50 pM hBTK, 2 μM biotin-A5-peptide, 25 μM ATP; 60 minute compound & enzyme incubation; 120 minutes reaction
row,SMILES,IC50 [nM]
1,"NC(=O)c1cnc(N2CCCC3(CCNC3=O)C2)c2c1[nH]c1ccccc12 (stereo in doubt) [Example 41, 1-[(5S)-1-oxo-2,7-diazaspiro[4.5]dec-7-yl]-5H-pyrido[4,3-b]indole-4-carboxamide]",10.7
